The text below walks through data of EPA's ToxRefDB 2.

Molecules are shown by their SMILES.

Series [1] relates to rat. Conditions: Prenatal developmental toxicity study, sprague dawley, Oral, Gavage/Intubation, dose end: 17 GD.
Series [2] concerns rabbit. The note with it: Prenatal developmental toxicity study, new zealand white, Oral, Gavage/Intubation, dose end: 18 GD.
Series [3] concerns rat. Conditions: Subchronic oral toxicity in rodents, sprague dawley, Feed, dose end: 6 month.
A further series concerns dog. The note with it: Chronic toxicity, beagle, Oral, Feed, dose end: 24 month.
The subject of series [4] is rat. Conditions: Combined chronic toxicity/carcinogenicity, fischer, Oral, Feed, dose end: 104 week.
Series [5] deals with rat. The note with it: Multigenerational reproductive toxicity study, wistar, Oral, Feed, dose end: 2 generation.
For series [6], the system named is rabbit. Conditions: Prenatal developmental toxicity study, himalayan, Oral, Gavage/Intubation, dose end: 28 GD.
In series [7] the test system is rat. Conditions: Prenatal developmental toxicity study, sprague dawley, Oral, Gavage/Intubation, dose end: 20 GD.
The subject of series [8] is rat. Conditions: Multigenerational reproductive toxicity study, sprague dawley, Oral, Feed, dose end: 2 generation.
Series [9] has as its system rabbit. Conditions: Prenatal developmental toxicity study, new zealand white, Oral, Water, dose end: 19 GD.
The subject of series [10] is rat. The note with it: Prenatal developmental toxicity study, wistar, Oral, Gavage/Intubation, dose end: 19 GD.
In series [11] the test system is rat. The note with it: Multigenerational reproductive toxicity study, wistar, Oral, Feed, dose end: 2 generation. The source holds these as a separate data set.
Series [12] relates to rabbit. Conditions: Prenatal developmental toxicity study, himalayan, Oral, Gavage/Intubation, dose end: 28 GD. The source holds these as a separate data set.
[13] abbreviates: group: developmental, developmental / developmental malformation / bone / incomplete ossification + systemic / in life observation / body weight / fetal weight.
Where [14] appears, read: group: maternal, systemic / in life observation / body weight / body weight gain + systemic / in life observation / clinical signs / alopecia + systemic / in….
The mark [15] stands for this setting: group: developmental, developmental / developmental malformation / bone / incomplete ossification + developmental / developmental malformation / bone / short + ….
The mark [16] stands for this setting: group: maternal, reproductive / reproductive performance / resorptions / resorptions + systemic / in life observation / body weight / body weight + systemic….
Where [17] appears, read: group: cholinesterase, cholinesterase / cholinesterase / cholinesterase / erythrocyte cholinesterase (che) + cholinesterase / cholinesterase / cholinesterase / ….
The mark [18] stands for this setting: group: systemic, systemic / clinical chemistry / alanine aminotransferase (alt/sgpt) / alanine aminotransferase (alt/sgpt).
The mark [19] stands for this setting: group: cholinesterase, cholinesterase / cholinesterase / cholinesterase / erythrocyte cholinesterase (che).
[20] abbreviates: group: cholinesterase, cholinesterase / cholinesterase / cholinesterase / plasma cholinesterase (che).
Where [21] appears, read: group: systemic, systemic / organ weight / liver / absolute + systemic / organ weight / liver / relative to body weight.
The mark [22] stands for this setting: group: cholinesterase, cholinesterase / cholinesterase / cholinesterase / brain cholinesterase (che) + cholinesterase / cholinesterase / cholinesterase / plasma ….
[23] abbreviates: group: systemic, systemic / clinical chemistry / cholesterol / cholesterol + systemic / hematology / erythrocyte (rbc) count differential / erythrocyte (rbc….
Where [24] appears, read: group: maternal, reproductive / reproductive performance / fertility / fertility + reproductive / reproductive performance / precoital interval / precoital ….
Where [25] appears, read: group: offspring, developmental / offspring survival late / viability index / viability index.
Setting [26] is: group: offspring, developmental / offspring survival late / viability index / viability index + reproductive / offspring survival early / dead fetuses / dead ….
[27] abbreviates: group: parental, systemic / in life observation / body weight / body weight + systemic / in life observation / body weight / body weight gain + systemic / in….
Where [28] appears, read: group: reproductive, reproductive / reproductive performance / gestational length / gestational length + reproductive / reproductive performance / gestation ….
Where [29] appears, read: group: developmental, developmental / developmental malformation / general / crown-rump length + systemic / in life observation / body weight / fetal weight.
Setting [30] is: group: maternal, reproductive / reproductive performance / premature delivery / premature delivery + systemic / in life observation / body weight / body ….
Setting [31] is: group: developmental, developmental / developmental malformation / bone / [other] + developmental / developmental malformation / bone / delayed ossification + ….
[32] abbreviates: group: maternal, systemic / in life observation / body weight / body weight gain.
[33] abbreviates: group: offspring, systemic / in life observation / body weight / offspring (pup) weight + systemic / in life observation / body weight / offspring (pup) ….
Where [34] appears, read: group: parental, systemic / organ weight / kidney / absolute + systemic / organ weight / kidney / relative to body weight + systemic / pathology microscopic….
[35] abbreviates: group: developmental, developmental / developmental malformation / other / other + systemic / in life observation / body weight / fetal weight.
Setting [36] is: group: maternal, systemic / in life observation / clinical signs / defecation + systemic / in life observation / food consumption / food consumption + ….
The mark [37] stands for this setting: group: developmental, developmental / developmental malformation / aortic arch / narrowed + developmental / developmental malformation / bone / [other] + ….
Where [38] appears, read: group: developmental, developmental / developmental malformation / bone / incomplete ossification + developmental / developmental malformation / bone / wavy + ….
The mark [39] stands for this setting: group: maternal, systemic / in life observation / body weight / body weight + systemic / in life observation / body weight / body weight gain + systemic / in….
The mark [40] stands for this setting: group: parental, systemic / in life observation / body weight / body weight gain.
Where [41] appears, read: group: developmental, developmental / developmental malformation / liver / [other].
[42] abbreviates: group: maternal, reproductive / reproductive performance / aborted / aborted + systemic / in life observation / body weight / body weight gain + systemic / ….

In general, LOAEL refers to the lowest tested level that showed an adverse finding. By NOAEL is commonly meant the highest tested level that showed no adverse finding.

As to `Cc1cccc(C)c1NC(=O)c1ccc(N)cc1` [Ameltolide], in the series with rat [1] (setting [13]), the LEL came out at 50 mg/kg/day, the lowest-observed-adverse-effect level (LOAEL) was more than 50 mg/kg/day, the NEL turned out to be 25 mg/kg/day and the NOAEL was not below 50 mg/kg/day. Further, in the series on rat [1] (setting [14]), the LEL is 50 mg/kg/day, the LOAEL was more than 50 mg/kg/day, the NEL is 25 mg/kg/day and the NOAEL was not below 50 mg/kg/day. Besides, in the series on rabbit [2] (setting [15]), the LEL was 100 mg/kg/day, the LOAEL is more than 100 mg/kg/day, the NEL amounted to 50 mg/kg/day and the NOAEL was not below 100 mg/kg/day. Further, in the series on rabbit [2] (setting [16]), the LEL came to 100 mg/kg/day, the LOAEL is more than 100 mg/kg/day, the NEL came to 50 mg/kg/day and the no-observed-adverse-effect level (NOAEL) was not below 100 mg/kg/day.
On to `CCOP(=S)(OCC)Oc1nc(Cl)c(Cl)cc1Cl` [Chlorpyrifos], for which the LEL was found to be 0.75 mg/kg/day with rat [3] (setting [17]); 0.15 mg/kg/day in the series on rat [3] (setting [18]); 0.01 mg/kg/day with dog (setting [19]); 3 mg/kg/day in the series with dog (setting [21]); 0.1 mg/kg/day in the series on rat [4] (setting [20]); 1 mg/kg/day in the series with rat [4] (group: systemic, systemic / clinical chemistry / cholesterol / cholesterol + systemic / clinical chemistry / alkaline phosphatase (alp/alk) / alkaline …). Further, the LOAEL with rat [3] (setting [17]) is 0.75 mg/kg/day; in the series on rat [3] (setting [18]), more than 0.75 mg/kg/day; with dog (setting [20]), 0.03 mg/kg/day; in the series on dog (setting [21]) it was more than 3 mg/kg/day; with rat [4] (setting [22]), 1 mg/kg/day; in the series on rat [4] (setting [23]), more than 10 mg/kg/day. Further, the NEL in the series on rat [3] (setting [17]) was 0.15 mg/kg/day; with rat [3] (setting [18]), 0.03 mg/kg/day; with dog (setting [19]), less than 0.01 mg/kg/day; in the series with dog (setting [21]), 1 mg/kg/day; with rat [4] (setting [22]) it was 0.05 mg/kg/day; in the series with rat [4] (group: systemic, systemic / clinical chemistry / cholesterol / cholesterol + systemic / in life observation / body weight / body weight + systemic / …), 0.1 mg/kg/day. Besides, the NOAEL in the series with rat [3] (setting [17]) was 0.15 mg/kg/day; with rat [3] (setting [18]) it was not below 0.75 mg/kg/day; in the series with dog (group: cholinesterase, cholinesterase / cholinesterase / cholinesterase / plasma cholinesterase (che) + cholinesterase / cholinesterase / cholinesterase / …), 0.01 mg/kg/day; with dog (setting [21]) it was not below 3 mg/kg/day; with rat [4] (setting [22]) it was 0.1 mg/kg/day; with rat [4] (setting [23]), not below 10 mg/kg/day.
Consider `Fc1ccc([C@@]2(Cn3cncn3)O[C@@H]2c2ccccc2Cl)cc1` [Epoxiconazole], for which the LEL in the series on rat [5] (setting [24]) was determined as 22.1 mg/kg/day; in the series with rat [5] (setting [25]) it was 0.85 mg/kg/day; in the series with rat [5] (setting [27]), 22.1 mg/kg/day; in the series on rat [5] (setting [28]), 31.9 mg/kg/day. Also, the lowest-observed-adverse-effect level (LOAEL) with rat [5] (setting [24]) is 22.1 mg/kg/day; in the series on rat [5] (setting [26]), 22.1 mg/kg/day; in the series with rat [5] (setting [27]) it was 22.1 mg/kg/day; in the series on rat [5] (setting [28]) it was 31.9 mg/kg/day. Further, the NEL in the series with rat [5] (setting [24]) was 2.17 mg/kg/day; in the series with rat [5] (setting [25]), less than 0.85 mg/kg/day; with rat [5] (setting [27]), 2.17 mg/kg/day; in the series on rat [5] (setting [28]), 2.41 mg/kg/day. The NOAEL in the series on rat [5] (setting [24]) is 2.17 mg/kg/day; with rat [5] (setting [26]), 2.17 mg/kg/day; with rat [5] (setting [27]), 2.17 mg/kg/day; with rat [5] (setting [28]) it was 2.41 mg/kg/day.
In the case of `O=C(NCc1ncc(C(F)(F)F)cc1Cl)c1c(Cl)cccc1Cl` [Fluopicolide], the LEL with rabbit [6] (setting [29]) is 60 mg/kg/day; in the series with rabbit [6] (setting [30]) it was 60 mg/kg/day; in the series with rat [7] (setting [31]), 700 mg/kg/day; in the series on rat [7] (setting [32]) it was 700 mg/kg/day; in the series on rat [8] (setting [33]), 180 mg/kg/day; in the series on rat [8] (setting [34]), 145 mg/kg/day. The lowest observed adverse effect level (LOAEL) came out at 60 mg/kg/day in the series with rabbit [6] (setting [29]); 60 mg/kg/day in the series on rabbit [6] (setting [30]); 700 mg/kg/day in the series on rat [7] (setting [31]); 700 mg/kg/day in the series with rat [7] (setting [32]); 180 mg/kg/day with rat [8] (setting [33]); 145 mg/kg/day in the series on rat [8] (setting [34]). Further, the NEL in the series on rabbit [6] (setting [29]) came to 20 mg/kg/day; in the series with rabbit [6] (setting [30]), 20 mg/kg/day; in the series with rat [7] (setting [31]) it was 60 mg/kg/day; in the series on rat [7] (setting [32]) it was 60 mg/kg/day; in the series on rat [8] (setting [33]), 43.7 mg/kg/day; in the series with rat [8] (setting [34]), 36.4 mg/kg/day. For the same compound, the NOAEL in the series with rabbit [6] (setting [29]) stood at 20 mg/kg/day; in the series on rabbit [6] (setting [30]), 20 mg/kg/day; in the series on rat [7] (setting [31]), 60 mg/kg/day; with rat [7] (setting [32]) it was 60 mg/kg/day; in the series on rat [8] (setting [33]), 43.7 mg/kg/day; in the series on rat [8] (setting [34]), 36.4 mg/kg/day.
For `[Na+].[O-][Cl+][O-]` [Sodium chlorite], in the series on rabbit [9] (setting [35]), the LEL was found to be 35.5 mg/kg/day, the lowest-observed-adverse-effect level (LOAEL) amounted to 35.5 mg/kg/day, the NEL was 13 mg/kg/day and the no observed adverse effect level (NOAEL) was determined as 13 mg/kg/day. Further, in the series on rabbit [9] (setting [36]), the LEL is 35.5 mg/kg/day, the LOAEL turned out to be 35.5 mg/kg/day, the NEL worked out at 13 mg/kg/day and the no observed adverse effect level (NOAEL) is 13 mg/kg/day.
In the case of `CCOC(=O)OC1=C(c2cc(C)ccc2C)C(=O)NC12CCC(OC)CC2` (configuration not stated) [Spirotetramat], the lowest-observed-adverse-effect level (LOAEL) in the series with rat [10] (setting [37]) was 1000 mg/kg/day; in the series on rat [10] (setting [39]), 1000 mg/kg/day; in the series on rat [11] (setting [33]), 487 mg/kg/day; in the series on rat [11] (setting [40]), 419 mg/kg/day; in the series with rabbit [12] (setting [41]), more than 160 mg/kg/day; in the series on rabbit [12] (setting [42]) it was 40 mg/kg/day. Also, the NOAEL was 140 mg/kg/day in the series with rat [10] (setting [37]); 140 mg/kg/day in the series with rat [10] (setting [39]); 79.5 mg/kg/day with rat [11] (setting [33]); 70.7 mg/kg/day in the series on rat [11] (setting [40]); not below 160 mg/kg/day in the series on rabbit [12] (setting [41]); 10 mg/kg/day with rabbit [12] (setting [42]). The LEL in the series with rat [10] (setting [38]) amounted to 20 mg/kg/day; in the series on rat [10] (group: maternal, systemic / in life observation / body weight / body weight) it was 140 mg/kg/day; with rat [11] (group: offspring, systemic / in life observation / body weight / offspring (pup) weight gain), 79.5 mg/kg/day; in the series with rat [11] (setting [40]) it was 419 mg/kg/day; with rabbit [12] (setting [41]), 160 mg/kg/day; in the series with rabbit [12] (setting [42]), 40 mg/kg/day. Further, the NEL is less than 20 mg/kg/day with rat [10] (setting [38]); 20 mg/kg/day in the series with rat [10] (setting [39]); 19.3 mg/kg/day in the series with rat [11] (setting [33]); 70.7 mg/kg/day in the series with rat [11] (setting [40]); 40 mg/kg/day with rabbit [12] (setting [41]); 10 mg/kg/day in the series with rabbit [12] (setting [42]).
